Results: patent US5244905A, “N-substituted cycloalkyl and polycycloalkyl polyhydro-β-carboline-phenylalanine- and phenethylamine derivatives” (Warner-Lambert Company, priority 1991, dated 1993)

Experiments:
[1] = target: T1, CCK-B receptor (Mus musculus, UniProt P56481); experiment: Binding to the CCK-B receptor (Table III); parameters: species or system mouse (male CFLP)
T1 construct: from tissue
T1 sequence (P56481 1-453): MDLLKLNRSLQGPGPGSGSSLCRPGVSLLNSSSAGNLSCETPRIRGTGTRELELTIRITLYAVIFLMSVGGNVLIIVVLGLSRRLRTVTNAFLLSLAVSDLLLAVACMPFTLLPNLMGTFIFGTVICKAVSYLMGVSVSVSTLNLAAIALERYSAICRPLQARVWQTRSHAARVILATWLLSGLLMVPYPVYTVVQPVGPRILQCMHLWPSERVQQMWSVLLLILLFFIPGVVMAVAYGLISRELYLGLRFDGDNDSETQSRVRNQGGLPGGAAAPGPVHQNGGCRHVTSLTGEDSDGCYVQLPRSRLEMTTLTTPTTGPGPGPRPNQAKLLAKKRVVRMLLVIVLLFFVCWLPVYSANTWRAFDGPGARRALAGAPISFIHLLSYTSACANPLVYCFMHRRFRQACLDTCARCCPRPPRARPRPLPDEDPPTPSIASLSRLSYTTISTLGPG
Procedure: (§1) The biological activity of compounds of the present invention was evaluated employing an initial screening test which rapidly and accurately measured the binding of the tested compound to known CCK receptor sites. […] (See Hays et al, Neuropeptides 1:53-62, 1980; and Satuer et al, Science, 208:1155-1156, 1980.
(§2) In this screening test, the cerebral cortices taken from male CFLP mice weighing between 30-40 g were dissected on ice, weighed, and homogenized in 10 volumes of 50 mM Tris-HCl buffer (pH 7.4 at 0°-4° C.). The resulting suspension was centrifuged, the supernate was discarded, and the pellet was washed by resuspension in Tris-HCl buffer followed by recentrifugation. The final pellet was resuspended in 20 volumes of […] Hepes buffer (pH 7.2 at 23° C.) containing 130 mM NaCl, […] KCl, […] MgCl2, […] EDTA, 5 mg/mL bovine albumin, and bacitracin (0.25 mg/mL).
(§3) In saturation studies, cerebral cortical membranes were incubated at 23° C. for 120 minutes in a final volume of 500 μliter of Hepes incubation buffer (pH 7.2) together with 0.2-20 nM tritiated-pentagastrin (Amersham International, England).
(§4) In the displacement experiments, membranes were incubated with a single concentration (2 nM) of ligand, together with increasing concentrations ([…]) of competitive test compound. In each case, the nonspecific binding was defined as that persisting in the presence of the unlabeled octapeptide CCK26-33 (10^-6 M).
(§5) Following incubation, radioactivity bound to membranes was separated from that free in solution by rapid filtration through Whatman GF/B filters and washed three times with 4 mL of ice cold Tris-HCl buffer. Filters from samples incubated with tritiated-pentagastrin were placed in polyethylene vials with 4 mL of scintillation cocktail, and the radioactivity was estimated by liquid scintillation spectrometry (efficiency 47% to 52%).
(§6) The specific binding to CCK receptor sites was defined as the total bound tritiated-pentagastrin minus the amount of tritiated-pentagastrin bound in the presence of 10^-6 octapeptide, CCK26-33.
(§7) Saturation curves for specific tritiated-pentagastrin binding to mouse cortical membranes were analyzed by the methods of Scatchard (Ann. New York Acad. Sci. 51:660 672, 1949, and Hill (J. Physiol. 40:IV-VIII, 1910, to provide estimates for the maximum number of binding sites (Bmax) and the equilibrium dissociation constant ([…]).
(§8) In displacement experiments, inhibition curves were analyzed by either logit-log plots or the iterative curve fitting computer program ALLFIT (DeLean, Munson and Redbard, 1978) to provide estimates of the IC50 and nH (apparent Hill coefficient) values). (IC50 values were defined as the concentration of test compound required to produce 50% inhibition of specific binding.)
(§9) The inhibition constant (Ki) of the test compound was then calculated according to the Cheng-Prusoff equation: [formula] where [L] is the concentration of radiolabel and Ka is the equilibrium dissociation constant.

[2] = target: T2, Central CCK Receptors (Mus musculus, UniProt P56481); experiment: Binding to central CCK receptors ([3H]-pentagastrin displacement, mouse cerebral cortical membranes); parameters: species or system mouse (male CFLP); conditions: tritiated pentagastrin 2 nM, number of assays (n) = 2
T2 construct: from tissue; host or cells: cerebral cortex of male CFLP mice (washed membranes)
T2 sequence (P56481 1-453): T1 sequence (P56481 1-453)
Procedure: as §1, §2, §3, §4, §5, §6, §7, §8, §9
The Ki values for several representative compounds of the present invention are present in Table II.

[3] = tested on: aspirin-induced gastric damage; experiment: Aspirin-induced gastric damage; assay type: in vivo, rat; conditions: 15 mg/kg PO, p <0.001 compared with controls
Procedure: Aspirin-induced gastric damage is assessed in groups of 10 rats each. All animals are fasted for 24 hours before and throughout the experiment. Drug or vehicle is given 10 minutes before an oral dose of 1 mL of a 45-mg/mL suspension of aspirin in 0.5% carboxymethylcellulose (CMC). The animals are sacrificed 5 hours after aspirin administration and the stomachs removed and opened for examination. |Gastric damage is scored as follows: |1 Small hemorrhage |2 Large hemorrhage |3 Small ulcer |4 Large ulcer |5 Perforated ulcer

Row | Ki [1] [nM] | Ki [2] [nM] | Ki CCK-B [1] | Structure (SMILES) | inhibition of ulcer formation ([3]; 10 minutes before aspirin) [%] | ulcer score ([3]; ±SD, saline control 12.1±6.85)
1 | 500 | 500 | – | CC1(C(=O)N[C@H](CO)Cc2ccccc2)Cc2c([nH]c3ccccc23)CN1C(=O)OC1C2CC3CC(C2)CC1C3 (mixture of isomers) [Example 4, 1,3,4,9-Tetrahydro-3-[[[1-(hydroxymethyl)-2-phenylethyl]amino]carbonyl]-3-methyl-2H-pyrido[3,4-b]indole-2-carboxylic acid,tricyclo[3.3.1.1^3,7]dec-2-yl ester (mixture of diastereomers)] | – | –
2 | 3000 | 3000 | – | CC1(C(=O)NCC(N)c2ccccc2)Cc2c([nH]c3ccccc23)CN1C(=O)OC1C2CC3CC(C2)CC1C3 (mixture of isomers) [Example 8, 3-[[(2-Amino-2-phenylethyl)amino]carbonyl]-1,3,4,9-tetrahydro-3-methyl]-2H-pyrido[3,4-b]indole-2-carboxylic acid, tricyclo[3.3.1.1^3,7]dec-2-yl ester, (mixtures of diastereomers)] | – | –
3 | 3000 | 3000 | – | CC1(C(=O)NCC(NC(=O)CCC(=O)OCc2ccccc2)c2ccccc2)Cc2c([nH]c3ccccc23)CN1C(=O)OC1C2CC3CC(C2)CC1C3 (mixture of isomers) [Example 11, 3-[3-[3-[2-[2-[1,4-Dioxo-4-(phenylmethoxy)butyl]amino]-2-phenylethyl]amino]carbonyl]-1,3,4,9-tetrahydro-3-methyl]-2H-pyrido[3,4-b]indole-2-carboxylic acid, tricyclo[3.3.1.1^3.7]dec-2-yl ester (mixture of diastereomers)] | – | –
4 | 1000 | 1000 | – | CC1(C(=O)NCC(NC(=O)CC(=O)O)c2ccccc2)Cc2c([nH]c3ccccc23)CN1C(=O)OC1C2CC3CC(C2)CC1C3 (mixture of isomers) [Example 14, 3-[[[2-[(3-Carboxyacetyl)amino]-2-phenethyl]-amino]-carbonyl]-1,3,4,9-tetrahydro-3-methyl-2H-pyrido[3,4-b]indole-2-carboxylic acid, [tricyclo-[3.3.1.1^3,7]dec-2-yl ester (mixture of diastereomers)] | – | –
5 | 710 | 710 | – | CC1(C(=O)NCC(NC(=O)/C=C\C(=O)O)c2ccccc2)Cc2c([nH]c3ccccc23)CN1C(=O)OC1C2CC3CC(C2)CC1C3 (mixture of isomers) [Example 15, 3-[[[2-[(3-Carboxy-1-oxo-2-propenyl)amino]-b 2-phenethyl]amino]carbonyl]1,3,4,9-tetrahydro-3-methyl-2H-pyrido[3,4-b]indole-2-carboxylic acid, [tricyclo-[3.3.1.1^3.7]dec-2-yl ester (mixture of diastereomers)] | – | –
6 | 305 | 305 | – | CC1(C(=O)N[C@H](CNC(=O)CCC(=O)O)Cc2ccccc2)Cc2c([nH]c3ccccc23)CN1C(=O)OC1C2CC3CC(C2)CC1C3 (mixture of isomers) [Example 16, 3-[[1-(3-Carboxy-1-oxopropyl)amino]methyl]-1-phenethyl]amino]carbonyl]-1,3,4,9-tetrahydro-3-methyl2H-pyrido[3,4-b]indole-2-carboxylic acid, [tricyclo-[3.3.1.1^3,7]dec-2 yl ester (mixture of diastereomers)] | – | –
7 | 150 | 150 | – | CC1(C(=O)NCCc2ccccc2)Cc2c([nH]c3ccccc23)CN1C(=O)OC1C2CC3CC(C2)CC1C3 (racemic) [Example 1, (±)1,3,4,9-Tetrahydro-3-methyl-3-[[2-phenylethyl)amino]carbonyl]-2H-pyrido[3,4-b]indole-2-carboxylic acid,tricyclo[3.3.1.1^3,7]dec-2-yl ester] | – | –
8 | 990 | 990 | – | O=C(NCCc1ccccc1)C1Cc2c([nH]c3ccccc23)CN1C(=O)OC1C2CC3CC(C2)CC1C3 (racemic) [Example 17] | – | –
9 | – | – | iA | CC1(C(=O)NCCc2ccccc2)Cc2c([nH]c3ccccc23)CN1S(=O)(=O)NC1C2CC3CC(C2)CC1C3 (racemic) [Example 19, (+/-)-1,3,4,9-Tetrahydro-3-methyl-N-(2-phenylethyl)-2-(tricyclo[(3.3.1.1^3,7]dec-2-ylamino]sulfonyl]1H-pyrido-[3,4-b]indole-3-carboxamide] | – | –
10 | 600 | 600 | – | C[C@]1(C(=O)NCCc2ccccc2)Cc2c([nH]c3ccccc23)CN1C(=O)OC1C2CC3CC(C2)CC1C3 (stereo partly drawn) [Example 2] | – | –
11 | – | – | iA | C[C@@]1(C(=O)NCCc2ccccc2)Cc2c([nH]c3ccccc23)CN1C(=O)OC1C2CC3CC(C2)CC1C3 (stereo partly drawn) [Example 3] | – | –
12 | 730 | 730 | – | C[C@]1(C(=O)N[C@H](CO)Cc2ccccc2)Cc2c([nH]c3ccccc23)CN1C(=O)OC1C2CC3CC(C2)CC1C3 (stereo partly drawn) [Example 5] | – | –
13 | 1500 | 1500 | – | C[C@@]1(C(=O)N[C@H](CO)Cc2ccccc2)Cc2c([nH]c3ccccc23)CN1C(=O)OC1C2CC3CC(C2)CC1C3 (stereo partly drawn) [Example 6, (S)-1,3,4,9-Tetrahydro-3-[[[1-(hydroxymethyl)-2-phenylethyl]amino]carbonyl]-3-methyl-2H-pyrido[3,4-b]indole-2-carboxylic acid,tricyclo[3.3.1.1^3,7]dec-2-yl ester ester] | – | –
14 | 860 | 860 | – | CC1(C(=O)N[C@@H](CO)[C@@H](O)c2ccccc2)Cc2c([nH]c3ccccc23)CN1C(=O)OC1C2CC3CC(C2)CC1C3 (stereo partly drawn) [Example 7, 1,3,4,9-Tetrahydro-3-[[[1-(hydroxymethyl)-2-hydroxy-2-phenylethyl]amino]carbonyl]-3-methyl-2H-pyrido[3,4-b]-indole-2-carboxylic acid,tricyclo[3.3.1.1^3,7]dec-2-yl ester] | – | –
15 | 500 | 500 | – | CC1(C(=O)NCC(NC(=O)CCC(=O)O)c2ccccc2)Cc2c([nH]c3ccccc23)CN1C(=O)OC1C2CC3CC(C2)CC1C3 (stereo not drawn) [Example 9, 3-[[[2-(3-Carboxy-1-oxopropyl)-amino]-2-phenylethyl]amino]carbonyl]-1,3,4,9-tetrahydro-3-methyl-2H-pyrido[3,4-b]indole-2-carboxylic acid, tricyclo[3.3.1.1^3,7]dec-2-yl ester, [R-(R*,R*)] and [R-(R*,S*)]-] | – | –
16 | 710 | 710 | – | CC1(C(=O)NCC(O)c2ccccc2)Cc2c([nH]c3ccccc23)CN1C(=O)OC1C2CC3CC(C2)CC1C3 (stereo not drawn) [Example 12] | – | –
17 | 1000 | 1000 | – | CC1(C(=O)NCC(OC(=O)CCC(=O)O)c2ccccc2)Cc2c([nH]c3ccccc23)CN1C(=O)OC1C2CC3CC(C2)CC1C3 (stereo not drawn) [Example 13] | – | –
18 | 6000 | 6000 | – | CC(C)(C)OC(=O)N1Cc2[nH]c3ccccc3c2CC1C(=O)NC(Cc1ccccc1)C(=O)O (stereo not drawn) [Example 18, 3-[[1(I-Carboxy-2-phenethyl)amino]carbonyl]-1,3,4,9-tetrahydro-2H-pyrido[3,4-b]indole-2-carboxylic acid, 1,1-dimethylethyl ester] | – | –
19 | – | – | – | CNC(=C[N+](=O)[O-])NCCSCc1ccc(CN(C)C)o1 [ranitidine] | 74 | 3.2±2.35
